Measured values reported in US20240252499A1, “Treatment of uremic pruritus” (CymaBay Therapeutics, Inc., priority 2023, published 2024).
Like-named read-outs stand apart in the source and are kept apart here. Each block holds one molecule with its values, some of them ahead of it.

Assays:
[1] = target: T1, peroxisome proliferator-activated receptor-α (Homo sapiens, UniProt Q07869); assay: Specificity of seladelpar for PPARδ compared with PPARα; format: biochemical; details: PPARδ vs PPARα
T1 sequence (Q07869 1-468): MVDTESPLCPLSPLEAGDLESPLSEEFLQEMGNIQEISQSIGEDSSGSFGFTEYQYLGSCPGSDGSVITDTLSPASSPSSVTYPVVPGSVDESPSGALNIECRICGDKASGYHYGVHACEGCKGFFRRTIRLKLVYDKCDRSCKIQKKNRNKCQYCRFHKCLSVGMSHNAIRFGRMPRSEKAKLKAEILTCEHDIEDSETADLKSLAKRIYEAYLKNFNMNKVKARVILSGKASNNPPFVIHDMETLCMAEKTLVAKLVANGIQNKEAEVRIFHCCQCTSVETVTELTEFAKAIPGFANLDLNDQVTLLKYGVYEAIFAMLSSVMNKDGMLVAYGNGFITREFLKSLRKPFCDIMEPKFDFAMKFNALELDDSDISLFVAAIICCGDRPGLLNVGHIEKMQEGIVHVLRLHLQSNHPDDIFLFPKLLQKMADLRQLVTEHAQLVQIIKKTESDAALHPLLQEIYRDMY
Source text: It is specific (>600-fold and >2500-fold compared with peroxisome proliferator-activated receptor-α and peroxisome proliferator-activated receptor-γ receptors). PPARδ activation stimulates fatty acid oxidation and utilization, improves plasma lipid and lipoprotein metabolism, glucose utilization, and mitochondrial respiration, and preserves stem cell homeostasis.

[2] = tested on: IL-31 production by CD4 T cells; assay: IL-31 production by CD4 T cells under Th2-promoting conditions; format: cell-based, human; details: for IL-31 concentration in culture medium, mean: 10 μM seladelpar
Protocol: CD4 T cells were enriched from peripheral blood mononuclear cells collected from two normal healthy donors, using the EasySep™ Human CD4+ T Cell Isolation Kit ([…] Technologies). 100,000 CD4 T cells were seeded in a U-bottom 96-well-plate well, and cultured in Th2-promoting conditions promoted by IL-4 or IL-33. […] On day 5 of culture, the anti-CD3/CD28 beads were diluted by adding 150 μL TCM. From days 5 to 13, the cells were cultured in the presence of the same reagents as for days 1 to 4 plus 50 ng/ml IL-2; and the cell culture medium was renewed every 2-3 days by a change of 50% volume of the medium. On day 13 or day 14, the expanded T cells in an individual well were split to four to six wells of 96-well-plate wells; and 5 ng/mL phorbol myristate acetate and 500 ng/mL ionomycin were added for 3 days to re-activate the T cells. The IL-31 concentration in the culture medium of each well was determined using the V-PLEX Human IL-31 Kit (Meso Scale Diagnostics, LLC; Rockville, MD, USA).

human IL-31 = assay: Serum human IL-31 in PXB mice (humanized liver) after 19 days of dosing; format: in vivo, PXB mouse; details: gavage once/day for 19 days, 2 h after last dose; day 0 0.13 pg/mL
Source text: The PXB mouse (PhoenixBio Co., Ltd., Higashi-Hiroshima, Japan) is a chimeric mouse with a humanized liver, produced by transplanting human hepatocytes into the albumin enhancer/promoter-urokinase-type plasminogen activator complementary DNA transgenic/SCID mouse. The mouse has its liver repopulated by human hepatocytes at a ratio of more than 70%, typically 85-90%, as assessed by measuring the ratio of human albumin to mouse albumin in the blood. The transplanted human hepatocytes express a variety of human messenger RNA (mRNA) and proteins, in a similar manner to those of the normal human liver. […] The study was conducted at PhoenixBio. Male PXB mice aged about 25 weeks, kept in single animal cages and fed CRF1 mouse chow supplemented with AS primate chow for vitamin C supplementation (both from Oriental Yeast Co., Ltd., Tokyo, Japan), were randomized into groups (10/group) based on mean values for body weight and blood human albumin concentration. […] Two hours after the last dose, each mouse was anesthetized with isoflurane, at least 400 μL blood was collected by cardiac puncture, and the mouse sacrificed by exsanguination. The blood samples were left to coagulate at room temperature for at least 5 minutes, then centrifuged at 13200×g for 3 minutes at 4 °C to obtain serum, which was analyzed for human IL-31.

IL-31 [3] = assay: ENHANCE phase 3 study in PBC (NCT03602560): serum IL-31; format: in vivo, human; details: 12 weeks, p<0.001
Source text: The trial subjects in this phase 3 study were adult, male or female, with a diagnosis of PBC. Exclusion criteria included AST or ALT≥3×ULN, total bilirubin (TBIL)≥2×ULN, autoimmune hepatitis or a history of chronic viral hepatitis, PSC, the current use of fibrates or simvastatin, the use of colchicine, methotrexate, azathioprine, or systemic steroids in the previous two months, the use of an experimental treatment for PBC, and the use of an experimental or unapproved immunosuppressant. […] Serum IL-31 and its correlation with patient-reported pruritus numerical rating scale (NRS, 0-10) were assessed. Baseline IL-31 levels positively correlated with pruritus NRS; r=0.54, p<0.0001). […] IL-31 compared to subjects with pruritus NRS<4 (7.6 pg/mL [1.2, 14.5] vs 1.2 pg/mL [0.3, 2.8], p<0.0001). At baseline, IL-31 was also correlated with serum total bile acids (r=0.54, p<0.0001) and alkaline phosphatase (ALP) (r=0.44, p<0.0001).

[4] = Studies of oral seladelpar in PBC; format: in vivo, human
[5] = Example 4: oral seladelpar in uremic pruritus; format: in vivo, human; details: oral 5, 10, 25 and 50 mg/day; end-stage renal disease on hemodialysis
Protocol: Subjects are permitted their usual other medications. […] At each visit, the subjects are assessed for their disease symptoms and biomarkers, and assessed for uremic pruritus. The subjects also maintain health diaries, which are reviewed at each visit.

[6] = Example 5: topical seladelpar in uremic pruritus; format: in vivo, human; details: topical ointment 1, 2, 5 or 10%; end-stage renal disease on hemodialysis
Protocol: Subjects are permitted their usual other medications. […] At each visit, the subjects are assessed for their disease symptoms and biomarkers, and assessed for pruritus. The subjects also maintain health diaries, which are reviewed at each visit.

[7] = 12-month trial, PBC patients, cited from earlier work
IL-31 [8] = details: humanized liver murine model; cited from earlier work
IL-31 [9] = details: NASH patients; cited from earlier work
[10] = Example 6: oral mavodelpar in uremic pruritus; format: in vivo, human; details: oral 5, 10, 25, 50 and 100 mg/day; end-stage renal disease on hemodialysis
Protocol: (§1) Adult subjects with end-stage renal disease on routine hemodialysis are treated orally with doses of 5, 10, 25, 50, and 100 mg/day of mavodelpar. Subjects are permitted their usual other medications. The subjects are assessed before the study, and at intervals during the study, such as every 4 weeks during the study and 4 weeks after the last dose of the mavodelpar therapy, for safety and pharmacodynamic evaluations. At each visit, the subjects are assessed for their disease symptoms and biomarkers, and assessed for uremic pruritus. The subjects also maintain health diaries, which are reviewed at each visit.

[11] = Example 7: topical mavodelpar in uremic pruritus; format: in vivo, human; details: topical ointment 1, 2, 5 or 10%; end-stage renal disease on hemodialysis
Protocol: as §1, with “topically” for “orally”, “an ointment containing 1, 2,” for “doses of”, “or 10%” for “10, 25, 50, and 100 mg/day”, “for” for “for uremic”

PPARa = target: T2, PPARa (Homo sapiens, UniProt Q07869); details: read-out: ECso for PPARa; cited from earlier work
T2 sequence (Q07869 1-468): T1 sequence (Q07869 1-468)

PPARy = target: T3, PPARy (Homo sapiens, UniProt P37231); details: read-out: ECso for PPARy; cited from earlier work
T3 sequence (P37231 1-505): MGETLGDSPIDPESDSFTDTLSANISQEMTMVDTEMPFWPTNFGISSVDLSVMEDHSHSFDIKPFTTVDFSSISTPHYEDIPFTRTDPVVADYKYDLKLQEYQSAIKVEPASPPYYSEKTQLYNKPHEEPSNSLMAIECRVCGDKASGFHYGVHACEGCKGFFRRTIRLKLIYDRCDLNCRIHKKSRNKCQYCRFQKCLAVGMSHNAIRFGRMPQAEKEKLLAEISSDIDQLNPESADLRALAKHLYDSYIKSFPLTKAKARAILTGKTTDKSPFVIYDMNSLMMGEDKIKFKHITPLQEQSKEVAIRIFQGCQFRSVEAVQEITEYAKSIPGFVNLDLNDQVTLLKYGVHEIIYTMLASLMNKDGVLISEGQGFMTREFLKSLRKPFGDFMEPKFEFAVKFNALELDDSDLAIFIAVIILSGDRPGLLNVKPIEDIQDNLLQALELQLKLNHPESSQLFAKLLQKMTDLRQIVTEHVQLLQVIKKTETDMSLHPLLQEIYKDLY

specificity compared with peroxisome proliferator-activated receptor-α [1]: > 600 fold
effect on cholestatic pruritus (exacerbation) ([4]; oral doses of 5, 10, 50 and 200 mg/day in PBC): not to exacerbate cholestatic pruritus
SMILES: CCO[C@H](COc1ccc(C(F)(F)F)cc1)CSc1ccc(OCC(=O)O)c(C)c1 [seladelpar, [4-({(2R)-2-ethoxy-3-[4-(trifluoromethyl)phenoxy]propyl}sulfanyl)-2-methylphenoxy]acetic acid]
IL-31 concentration in culture medium, mean ([2]; Donor 1, IL-4 promoted): 36.00 pg/mL
IL-31 concentration in culture medium, mean ([2]; Donor 1, IL-33 promoted): 10.14 pg/mL
IL-31 concentration in culture medium, mean ([2]; Donor 2, IL-4 promoted): 27.28 pg/mL
IL-31 concentration in culture medium, mean ([2]; Donor 2, IL-33 promoted): 324.05 pg/mL
effect on IL-31 production by CD4 T cells ([2]; both donors, both promoters, p<0.0001 vs DMSO, Mann-Whitney): reduced IL-31 production
serum IL-31 concentration (human IL-31): 0.19 pg/mL
mean IL-31 level at end of study (IL-31 [3]; 5 mg/day oral, from 3.8 pg/mL at baseline): 1.7 pg/mL
mean IL-31 level at end of study (IL-31 [3]; 10 mg/day oral, from 4.2 pg/mL at baseline): 1.7 pg/mL
efficacy in PBC ([4]; oral doses of 5, 10, 50 and 200 mg/day): effective in the treatment of PBC
efficacy in cholestatic pruritus associated with PBC ([4]; oral doses of 5 and 10 mg/day): effective in the treatment of cholestatic pruritus
effect on IL-31 ([4]; studies in PBC): reduce IL-31
uremic pruritus [5]: improvement in their uremic pruritus
uremic pruritus [6]: improvement in their uremic pruritus

SMILES: CC[C@H]1[C@@H](O)[C@@H]2[C@H](CC[C@]3(C)[C@@H]([C@H](C)CCC(=O)O)CC[C@@H]23)[C@@]2(C)CC[C@@H](O)C[C@@H]12 [obeticholic acid]
serum IL-31 concentration (human IL-31): 3.7 pg/mL
patients with severe pruritus ([7]; OCALIVA 10 mg arm): 23%
patients with severe pruritus ([7]; OCALIVA titration arm): 19%
mRNA expression in human hepatocytes (IL-31 [8]): increased

SMILES: O=C(O)c1ccnc(N2CC(O)(c3ccc(OCc4c(-c5c(Cl)cccc5Cl)noc4C4CC4)cc3Cl)C2)c1 [cilofexor]
effect on IL-31 (IL-31 [9]): increased IL-31

SMILES: Cc1cc(OC/C=C(/c2ccc(F)cc2)c2ccc(C#CCN3CCOCC3)cc2)ccc1OCC(=O)O [mavodelpar, (4-{[(2E)-3-(4-fluorophenyl)-3-{4-[3-(morpholin-4-yl)prop-1-yn-1-yl]phenyl}prop-2-en-1-yl]oxy}-2-methylphenoxy)acetic acid]
uremic pruritus [10]: improvement in their uremic pruritus
uremic pruritus [11]: improvement in their uremic pruritus
EC50 (PPARa): > 10 µM
EC50 (PPARy): > 10 µM
